Source: patent publication US20140303105A1, “Primycin and components thereof for use in the treatment or prevention of infections caused by specific pathogens” (PANNONPHARMA GYÓGYSZERGYÁRTÓ ZRT., priority 2011, published 2014)
Converted amounts (≈) assume the structure as drawn. Where two headings read alike, the source gives them in different places.

How the values were obtained:
[1] = test system: Staphylococcus epidermidis; conditions: by Bryskier; cited from earlier work
[2] = test system: Staphylococcus aureus ATCC 25923; conditions: cited from earlier work
Enterobacter cloacae = conditions: by Bryskier; cited from earlier work
[3] = test system: Streptococcus simulans 7866; conditions: cited from earlier work
[4] = test system: Bacillus subtilis ATCC 6633; conditions: cited from earlier work
Escherichia coli B 1218 = conditions: cited from earlier work
[5] = test system: Enterobacter cloacae B 520; conditions: cited from earlier work
Escherichia coli = conditions: by Bryskier; cited from earlier work
[6] = test system: Staphylococcus saprophyticus 8454; conditions: cited from earlier work
[7] = test system: Staphylococcus aureus 7503; conditions: cited from earlier work
Micrococcus spp. = conditions: cited from earlier work
Streptococcus mitis = conditions: by Bryskier; cited from earlier work
S. aureus ATCC 25923 = conditions: by Bryskier; cited from earlier work
[8] = test system: Staphylococcus hominis 7835; conditions: cited from earlier work
Streptococcus mitis 5728 = conditions: cited from earlier work
Diphteroides 8264 = conditions: cited from earlier work
Coryneform(s) = conditions: by Bryskier; cited from earlier work
Micrococcus = conditions: by Bryskier; cited from earlier work
[9] = test system: Serotype β Streptococcus 8252; conditions: cited from earlier work
B. subtilis ATCC 6633 = conditions: by Bryskier; cited from earlier work
Staphylococcus capitis = conditions: cited from earlier work
S. aureus = conditions: by Bryskier; cited from earlier work
S. pyogenes = conditions: by Bryskier; cited from earlier work
Propionibacterium acnes [10] = conditions: by Bryskier; cited from earlier work
Propionibacterium acnes [11] = conditions: cited from earlier work
[12] = test system: Staphylococcus epidermidis 7586; conditions: cited from earlier work
[13] = test system: Staphylococcus aureus, methicillin resistant; test: Standard microdilution susceptibility test, clinical isolates; format: cell-based
[14] = test system: Staphylococcus aureus, methicillin susceptible; test: as above; format: cell-based
E. casseliflavus = test: Microdilution MIC, Enterococcus isolates with van resistance genes; format: cell-based; conditions: Enterococcus casseliflavus
Experimental: Identification and characterization of resistance patterns of these bacteria were performed by standard methods.
When forming the test groups we attached great importance to the increasing incidence of drug-resistant microbes causing therapeutic problems. Most important of them are methicillin-resistant Staphylococcus aureus (MRSA), methicillin-resistant coagulase-negative Staphylococcus spp. (MRCoNS), penicillin-resistant Streptococcus pneumoniae (pneumococcus), vancomycin-resistant Enterococcus spp. (VRE). Pneumococcus isolates represented various serotypes, VRE isolates belonged to various species. Moreover, vancomycin-resistance of VRE isolates was based on different genetic backgrounds. Antibiotic-resistant strains were also represented among international reference strains, for example methicillin-resistant Staphylococcus aureus ATCC 43300 (MRSA), Staphylococcus aureus with decreased vancomycin susceptibility ATCC 700698 and 700699 (vancomycin intermediate Staphylococcus aureus—VISA), mupirocin-resistant Staphylococcus aureus ATCC BAA1708 and vancomycin-resistant Enterococcus faecalis ATCC 51299 (VRE).
Susceptibility tests were performed according to the standard microdilution method (NCCLS (CLSI) M7-A7).
The lowest concentration at which no bacterial growth was observed after the incubation period is the Minimal Inhibitory Concentration (MIC). The MIC value is inversely proportional to the antimicrobial efficacy. MIC values of antimicrobial agents can differ by species or even by bacterial strains within species.

[15] = test system: Enterococcus sp., vancomycin susceptible; test: Standard microdilution susceptibility test, clinical isolates; format: cell-based
[16] = test system: Streptococcus viridans sp.; test: as above; format: cell-based
[17] = test system: Coagulase-negative Staphylococus sp., methicillin susceptible; test: as above; format: cell-based
[18] = test system: Coagulase-negative Staphylococus sp., methicillin resistant; test: as above; format: cell-based
[19] = test system: Streptococcus pneumoniae, penicillin susceptible; test: as above; format: cell-based
[20] = test system: Enterococcus sp., decreased vancomycin susceptibility; test: as above; format: cell-based; conditions: 5 clinical isolates
[21] = test system: Streptococcus pneumoniae, penicillin resistant; test: as above; format: cell-based

Compound: CC1(C)S[C@@H]2[C@H](NC(=O)[C@H](N)c3ccccc3)C(=O)N2[C@H]1C(=O)O [Ampicillin]
- MIC [1]: <0.5 µg/mL
- MIC [2]: <0.5 µg/mL
- MIC (Enterobacter cloacae): 7.8 µg/mL (≈ 22.3 µM)
- MIC [3]: <0.5 µg/mL
- MIC [4]: <0.5 µg/mL
- MIC (Escherichia coli B 1218): 2.0 µg/mL (≈ 5.72 µM)
- MIC [5]: 7.8 µg/mL (≈ 22.3 µM)
- MIC (Escherichia coli): 2.0 µg/mL (≈ 5.72 µM)
- MIC [6]: <0.5 µg/mL
- MIC [7]: <0.5 µg/mL
- MIC (Micrococcus spp.): <0.5 µg/mL
- MIC (Streptococcus mitis): 7.8 µg/mL (≈ 22.3 µM)
- MIC (S. aureus ATCC 25923): <0.5 µg/mL
- MIC [8]: <0.5 µg/mL
- MIC (Streptococcus mitis 5728): 7.8 µg/mL (≈ 22.3 µM)
- MIC (Diphteroides 8264): 31.3 µg/mL (≈ 89.6 µM)
- MIC (Coryneform(s)): 31.3 µg/mL (≈ 89.6 µM)
- MIC (Micrococcus): <0.5 µg/mL
- MIC [9]: <0.5 µg/mL
- MIC (B. subtilis ATCC 6633): <0.5 µg/mL
- MIC (Staphylococcus capitis): <0.5 µg/mL
- MIC (S. aureus): <0.5 µg/mL
- MIC (S. pyogenes): <0.5 µg/mL
- MIC (Propionibacterium acnes [10]): 1.0 µg/mL (≈ 2.86 µM)
- MIC (Propionibacterium acnes [11]): 1.0 µg/mL (≈ 2.86 µM)
- MIC [12]: <0.5 µg/mL

Compound: [H]/N=C(/N)N[C@H]1[C@H](O)[C@@H](O)[C@H](O[C@@H]2O[C@@H](C)[C@](O)(C=O)[C@H]2O[C@@H]2O[C@@H](CO)[C@H](O)[C@@H](O)[C@@H]2NC)[C@@H](N/C(N)=N\[H])[C@@H]1O [Streptomycin]
- MIC [2]: 3.9 µg/mL (≈ 6.71 µM)
- MIC [3]: 2.0 µg/mL (≈ 3.44 µM)
- MIC [4]: 1.0 µg/mL (≈ 1.72 µM)
- MIC (Escherichia coli B 1218): 15.6 µg/mL (≈ 26.8 µM)
- MIC [5]: 7.8 µg/mL (≈ 13.4 µM)
- MIC [6]: 1.0 µg/mL (≈ 1.72 µM)
- MIC [7]: 2.0 µg/mL (≈ 3.44 µM)
- MIC (Micrococcus spp.): 3.9 µg/mL (≈ 6.71 µM)
- MIC [8]: 2.0 µg/mL (≈ 3.44 µM)
- MIC (Streptococcus mitis 5728): 250 µg/mL (≈ 430 µM)
- MIC (Diphteroides 8264): >250 µg/mL
- MIC [9]: 3.9 µg/mL (≈ 6.71 µM)
- MIC (Staphylococcus capitis): 3.9 µg/mL (≈ 6.71 µM)
- MIC (Propionibacterium acnes [11]): <0.5 µg/mL
- MIC [12]: 2.0 µg/mL (≈ 3.44 µM)

Compound: CN[C@H](CC(C)C)C(=O)N[C@H]1C(=O)N[C@@H](CC(N)=O)C(=O)N[C@H]2C(=O)N[C@H]3C(=O)N[C@H](C(=O)N[C@H](C(=O)O)c4cc(O)cc(O)c4-c4cc3ccc4O)[C@H](O)c3ccc(c(Cl)c3)Oc3cc2cc(c3O[C@@H]2O[C@H](CO)[C@@H](O)[C@H](O)[C@H]2O[C@H]2C[C@](C)(N)[C@H](O)[C@H](C)O2)Oc2ccc(cc2Cl)[C@H]1O [Vancomycin]
- MIC Range ([13]; 10 clinical isolates): 0.5 to 1 µg/mL
- Ratio of Sensitive/Total ([13]; 10 clinical isolates): 10/10
- MIC50 ([13]; Staphylococcus aureus): 1 µg/mL (≈ 0.69 µM)
- MIC90 ([13]; Staphylococcus aureus): 1 µg/mL (≈ 0.69 µM)
- MIC Range ([14]; 10 clinical isolates): 0.5 to 2 µg/mL
- Ratio of Sensitive/Total ([14]; 10 clinical isolates): 10/10
- MIC50 ([14]; Staphylococcus aureus): 1 µg/mL (≈ 0.69 µM)
- MIC90 ([14]; Staphylococcus aureus): 1 µg/mL (≈ 0.69 µM)
- MIC (E. casseliflavus; resistance gene van C1): 16 µg/mL (≈ 11 µM)
- MIC (E. casseliflavus; resistance gene van C2): 8 µg/mL (≈ 5.52 µM)
- MIC Range ([15]; 20 clinical isolates): 1 to 4 µg/mL
- Ratio of Sensitive/Total ([15]; 20 clinical isolates): 20/20
- MIC50 ([15]; Enterococcus): 1 µg/mL (≈ 0.69 µM)
- MIC90 ([15]; Enterococcus): 2 µg/mL (≈ 1.38 µM)
- MIC Range ([16]; 20 clinical isolates): 0.5 to 1 µg/mL
- Ratio of Sensitive/Total ([16]; 20 clinical isolates): 10/20
- MIC50 ([16]; Streptococcus viridans): 0.5 µg/mL (≈ 0.345 µM)
- MIC90 ([16]; Streptococcus viridans): 1 µg/mL (≈ 0.69 µM)
- MIC50 [17]: 1 µg/mL (≈ 0.69 µM)
- MIC90 [17]: 2 µg/mL (≈ 1.38 µM)
- MIC Range ([17]; 10 clinical isolates): 1 to 2 µg/mL
- Ratio of Sensitive/Total ([17]; 10 clinical isolates): 10/10
- MIC50 [18]: 2 µg/mL (≈ 1.38 µM)
- MIC90 [18]: 2 µg/mL (≈ 1.38 µM)
- MIC Range ([18]; 10 clinical isolates): 1 to 2 µg/mL
- Ratio of Sensitive/Total ([18]; 10 clinical isolates): 10/10
- MIC Range ([19]; 10 clinical isolates): 0.25 to 0.5 µg/mL
- Ratio of Sensitive/Total ([19]; 10 clinical isolates): 10/10
- MIC50 ([19]; Streptococcus pneumoniae): 0.5 µg/mL (≈ 0.345 µM)
- MIC90 ([19]; Streptococcus pneumoniae): 0.5 µg/mL (≈ 0.345 µM)
- Ratio of Sensitive/Total [20]: 0/5
- MIC Range ([21]; 10 clinical isolates): 0.25 to 0.5 µg/mL
- Ratio of Sensitive/Total ([21]; 10 clinical isolates): 10/10
- MIC50 ([21]; Streptococcus pneumoniae): 0.5 µg/mL (≈ 0.345 µM)
- MIC90 ([21]; Streptococcus pneumoniae): 0.5 µg/mL (≈ 0.345 µM)

Compound: Neomycin
- MIC 50% ([13]; 10 clinical isolates): 1 µg/mL
- MIC 90% ([13]; 10 clinical isolates): >32 µg/mL
- Ratio of Sensitive/Total ([13]; 10 clinical isolates): 5/10
- MIC 50% ([14]; 10 clinical isolates): 1 µg/mL
- MIC 90% ([14]; 10 clinical isolates): 2 µg/mL
- MIC Range ([14]; 10 clinical isolates): 0.5 to 2 µg/mL
- Ratio of Sensitive/Total ([14]; 10 clinical isolates): 10/10
- MIC 50% ([15]; 20 clinical isolates): >32 µg/mL
- MIC 90% ([15]; 20 clinical isolates): >32 µg/mL
- Ratio of Sensitive/Total ([15]; 20 clinical isolates): 0/20
- MIC 50% ([16]; 20 clinical isolates): >32 µg/mL
- MIC 90% ([16]; 20 clinical isolates): >32 µg/mL
- Ratio of Sensitive/Total ([16]; 20 clinical isolates): 0/20
- MIC 50% ([17]; 10 clinical isolates): 0.25 µg/mL
- MIC 90% ([17]; 10 clinical isolates): 1 µg/mL
- MIC Range ([17]; 10 clinical isolates): 0.06 to 4 µg/mL
- Ratio of Sensitive/Total ([17]; 10 clinical isolates): 10/10
- MIC 50% ([18]; 10 clinical isolates): 0.25 µg/mL
- MIC 90% ([18]; 10 clinical isolates): 16 µg/mL
- Ratio of Sensitive/Total ([18]; 10 clinical isolates): 8/10
- MIC 50% ([19]; 10 clinical isolates): >32 µg/mL
- MIC 90% ([19]; 10 clinical isolates): >32 µg/mL
- Ratio of Sensitive/Total ([19]; 10 clinical isolates): 0/10
- Ratio of Sensitive/Total [20]: 0/5
- MIC 50% ([21]; 10 clinical isolates): >32 µg/mL
- MIC 90% ([21]; 10 clinical isolates): >32 µg/mL
- Ratio of Sensitive/Total ([21]; 10 clinical isolates): 0/10
